Each structure is given as a SMILES string. Where a SMILES comes first, the peptide text is derived from it. [ ]: non-standard residue; d: D form. The star is where a group is joined. Phe(4-NO2) = N[C@@H](Cc1ccc([N+](=O)[O-])cc1)C(=O)O; Phe(3,4-Cl2) = N[C@@H](Cc1ccc(Cl)c(Cl)c1)C(=O)O; 1Nal = N[C@@H](Cc1cccc2ccccc12)C(=O)O; Palmitoyl = CCCCCCCCCCCCCCCC(=O)*; Myristoyl = CCCCCCCCCCCCCC(=O)*; Decanoyl = CCCCCCCCCC(=O)*; Nle = CCCC[C@H](N)C(=O)O; Octanoyl = CCCCCCCC(=O)*

For this experiment, the system named is fasted C57BL/6 mice. The experiment in a line: Food intake in fasted mice after SC administration. It counts as in vivo, mouse. Particulars: fasted C57BL/6 mice, 5 mg/kg SC, 45 min. Here is the method: Male C57BL/6 mice (An Lab, Prague 4) were bred in the accredited animal facility in the Institute of Organic Chemistry and Biochemistry, Czech Academy of Sciences, Prague, at the Institute of Molecular Genetics, Prague 4, at the temperature of 22±2° C. with access to food and water ad libitum. The day/night cycle was 12/12 hours (light turned on at 6:00 am). Animals were treated according to the Animal Protection Act (Act No. 246/1992). The males were fed standard chow diet St-1 (Mlýn Kocanda, Praha, Czech Republic) which contained 66% saccharides, 25% proteins and 9% lipids with a caloric value of 3.4 kcal/g.
The food was withdrawn 17 hours prior to injection of lipidated peptide and free access to water was maintained. The administration of saline, PrRP or lipidated analogs was performed either by SC injection at doses of 1-10 mg/kg (volume 0.2 ml/mouse), or by ICV using infusion pump (cannulae were inserted into the third brain ventricle 4 days before the experiment following the procedure of Maixnerová et al. (Maixnerová et al., 2011)). The single dose of peptide was 4 nmol/mouse (5 μl/mouse).
Fifteen minutes after the lipidated peptide administration, the mice were given pre-weighed food. The food was then weighed every 30 minutes for 5-10 hours. The administration of every dose was performed at least twice and one group of mice consisted of at least 6 mice. The results were presented as % of food intake as compared with the control group injected with saline.
Statistical evaluation was performed using program Graph-Pad Prism Software (San Diego, Calif., USA), and the one-way ANOVA with a subsequent Dunnettovým post-hoc test. The difference in food intake between mice injected with saline and mice injected with the examined peptide were considered statistically significant at P<0.05.

Turning to `CCCCCCCC(=O)N[C@H](C(=O)N1CCC[C@H]1C(=O)N[C@@H](CC(=O)O)C(=O)N[C@H](C(=O)N[C@@H](CC(N)=O)C(=O)N1CCC[C@H]1C(=O)N[C@@H](C)C(=O)N[C@@H](Cc1c[nH]c2ccccc12)C(=O)N[C@@H](Cc1ccc(O)cc1)C(=O)N[C@@H](C)C(=O)N[C@@H](CO)C(=O)N[C@@H](CCCNC(=N)N)C(=O)NCC(=O)N[C@H](C(=O)N[C@@H](CCCNC(=N)N)C(=O)N1CCC[C@H]1C(=O)N[C@H](C(=O)NCC(=O)N[C@@H](CCCNC(=N)N)C(=O)N[C@@H](Cc1ccccc1)C(N)=O)C(C)C)[C@@H](C)CC)[C@@H](C)CC)[C@@H](C)O` [Analog 52] (Octanoyl-TPDINPAWYASRGIRPVGRF-NH2), the “Food intake in mice (5 mg/kg SC) % saline-treated group (45 min)” value came to 100%.

Consider `CCCCCCCCCCCCCC(=O)N[C@@H](CO)C(=O)N[C@@H](CCCNC(=N)N)C(=O)N[C@@H](C)C(=O)N[C@@H](Cc1c[nH]cn1)C(=O)N[C@@H](CCC(N)=O)C(=O)N[C@@H](Cc1c[nH]cn1)C(=O)N[C@@H](CO)C(=O)N[C@@H](CCCC)C(=O)N[C@@H](CCC(=O)O)C(=O)N[C@H](C(=O)N[C@@H](CCCNC(=N)N)C(=O)N[C@H](C(=O)N1CCC[C@H]1C(=O)N[C@@H](CC(=O)O)C(=O)N[C@H](C(=O)N[C@@H](CC(N)=O)C(=O)N1CCC[C@H]1C(=O)N[C@@H](C)C(=O)N[C@@H](Cc1c[nH]c2ccccc12)C(=O)N[C@@H](Cc1ccc(O)cc1)C(=O)N[C@H](C(=O)NCC(=O)N[C@@H](CCCNC(=N)N)C(=O)NCC(=O)N[C@H](C(=O)N[C@@H](CCCNC(=N)N)C(=O)N1CCC[C@H]1C(=O)N[C@H](C(=O)NCC(=O)N[C@@H](CCCNC(=N)N)C(=O)N[C@@H](Cc1ccc(Cl)c(Cl)c1)C(N)=O)C(C)C)[C@@H](C)CC)[C@@H](C)O)[C@@H](C)CC)[C@@H](C)O)[C@@H](C)O` [Analog 25] (Myristoyl-SRAHQHS[Nle]ETRTPDINPAWYTGRGIRPVGR[Phe(3,4-Cl2)]-NH2), for which the “Food intake in mice (5 mg/kg SC) % saline-treated group (45 min)” value was found to be 13%.

As for `CCCCCCCCCCCCCC(=O)N[C@@H](CO)C(=O)N[C@@H](CCCNC(=N)N)C(=O)N[C@@H](C)C(=O)N[C@@H](Cc1c[nH]cn1)C(=O)N[C@@H](CCC(N)=O)C(=O)N[C@@H](Cc1c[nH]cn1)C(=O)N[C@@H](CO)C(=O)N[C@@H](CCCC)C(=O)N[C@@H](CCC(=O)O)C(=O)N[C@H](C(=O)N[C@@H](CCCNC(=N)N)C(=O)N[C@H](C(=O)N1CCC[C@H]1C(=O)N[C@@H](CC(=O)O)C(=O)N[C@H](C(=O)N[C@@H](CC(N)=O)C(=O)N1CCC[C@H]1C(=O)N[C@@H](C)C(=O)N[C@@H](Cc1c[nH]c2ccccc12)C(=O)N[C@@H](Cc1ccc(O)cc1)C(=O)N[C@H](C(=O)NCC(=O)N[C@@H](CCCNC(=N)N)C(=O)NCC(=O)N[C@H](C(=O)N[C@@H](CCCNC(=N)N)C(=O)N1CCC[C@H]1C(=O)N[C@H](C(=O)NCC(=O)N[C@@H](CCCNC(=N)N)C(=O)N[C@@H](Cc1ccccc1)C(N)=O)C(C)C)[C@@H](C)CC)[C@@H](C)O)[C@@H](C)CC)[C@@H](C)O)[C@@H](C)O` [Analog 18] (Myristoyl-SRAHQHS[Nle]ETRTPDINPAWYTGRGIRPVGRF-NH2), the “Food intake in mice (5 mg/kg SC) % saline-treated group (45 min)” value is 3%.

For `CCCCCCCCCCCCCCCC(=O)N[C@@H](CO)C(=O)N[C@@H](CCCNC(=N)N)C(=O)N[C@@H](C)C(=O)N[C@@H](Cc1c[nH]cn1)C(=O)N[C@@H](CCC(N)=O)C(=O)N[C@@H](Cc1c[nH]cn1)C(=O)N[C@@H](CO)C(=O)N[C@@H](CCCC)C(=O)N[C@@H](CCC(=O)O)C(=O)N[C@H](C(=O)N[C@@H](CCCNC(=N)N)C(=O)N[C@H](C(=O)N1CCC[C@H]1C(=O)N[C@@H](CC(=O)O)C(=O)N[C@H](C(=O)N[C@@H](CC(N)=O)C(=O)N1CCC[C@H]1C(=O)N[C@@H](C)C(=O)N[C@@H](Cc1c[nH]c2ccccc12)C(=O)N[C@@H](Cc1ccc(O)cc1)C(=O)N[C@H](C(=O)NCC(=O)N[C@@H](CCCNC(=N)N)C(=O)NCC(=O)N[C@H](C(=O)N[C@@H](CCCNC(=N)N)C(=O)N1CCC[C@H]1C(=O)N[C@H](C(=O)NCC(=O)N[C@@H](CCCNC(=N)N)C(=O)N[C@@H](Cc1cccc2ccccc12)C(N)=O)C(C)C)[C@@H](C)CC)[C@@H](C)O)[C@@H](C)CC)[C@@H](C)O)[C@@H](C)O` [Analog 23] (Palmitoyl-SRAHQHS[Nle]ETRTPDINPAWYTGRGIRPVGR[1Nal]-NH2), the “Food intake in mice (5 mg/kg SC) % saline-treated group (45 min)” value came out at 13%.

Regarding `CCCCCCCCCCCCCCCC(=O)N[C@@H](CO)C(=O)N[C@@H](CCCNC(=N)N)C(=O)N[C@@H](C)C(=O)N[C@@H](Cc1c[nH]cn1)C(=O)N[C@@H](CCC(N)=O)C(=O)N[C@@H](Cc1c[nH]cn1)C(=O)N[C@@H](CO)C(=O)N[C@@H](CCCC)C(=O)N[C@@H](CCC(=O)O)C(=O)N[C@H](C(=O)N[C@@H](CCCNC(=N)N)C(=O)N[C@H](C(=O)N1CCC[C@H]1C(=O)N[C@@H](CC(=O)O)C(=O)N[C@H](C(=O)N[C@@H](CC(N)=O)C(=O)N1CCC[C@H]1C(=O)N[C@@H](C)C(=O)N[C@@H](Cc1c[nH]c2ccccc12)C(=O)N[C@@H](Cc1ccc(O)cc1)C(=O)N[C@H](C(=O)NCC(=O)N[C@@H](CCCNC(=N)N)C(=O)NCC(=O)N[C@H](C(=O)N[C@@H](CCCNC(=N)N)C(=O)N1CCC[C@H]1C(=O)N[C@H](C(=O)NCC(=O)N[C@@H](CCCNC(=N)N)C(=O)N[C@@H](Cc1ccc(O)cc1)C(N)=O)C(C)C)[C@@H](C)CC)[C@@H](C)O)[C@@H](C)CC)[C@@H](C)O)[C@@H](C)O` [Analog 35] (Palmitoyl-SRAHQHS[Nle]ETRTPDINPAWYTGRGIRPVGRY-NH2), the “Food intake in mice (5 mg/kg SC) % saline-treated group (45 min)” value worked out at 22%.

In the case of `CCCCCCCCCCCCCCCC(=O)N[C@@H](CO)C(=O)N[C@@H](CCCNC(=N)N)C(=O)N[C@@H](C)C(=O)N[C@@H](Cc1c[nH]cn1)C(=O)N[C@@H](CCC(N)=O)C(=O)N[C@@H](Cc1c[nH]cn1)C(=O)N[C@@H](CO)C(=O)N[C@@H](CCCC)C(=O)N[C@@H](CCC(=O)O)C(=O)N[C@H](C(=O)N[C@@H](CCCNC(=N)N)C(=O)N[C@H](C(=O)N1CCC[C@H]1C(=O)N[C@@H](CC(=O)O)C(=O)N[C@H](C(=O)N[C@@H](CC(N)=O)C(=O)N1CCC[C@H]1C(=O)N[C@@H](C)C(=O)N[C@@H](Cc1c[nH]c2ccccc12)C(=O)N[C@@H](Cc1ccc(O)cc1)C(=O)N[C@H](C(=O)NCC(=O)N[C@@H](CCCNC(=N)N)C(=O)NCC(=O)N[C@H](C(=O)N[C@@H](CCCNC(=N)N)C(=O)N1CCC[C@H]1C(=O)N[C@H](C(=O)NCC(=O)N[C@@H](CCCNC(=N)N)C(=O)N[C@@H](Cc1ccc(Cl)c(Cl)c1)C(N)=O)C(C)C)[C@@H](C)CC)[C@@H](C)O)[C@@H](C)CC)[C@@H](C)O)[C@@H](C)O` [Analog 26] (Palmitoyl-SRAHQHS[Nle]ETRTPDINPAWYTGRGIRPVGR[Phe(3,4-Cl2)]-NH2), the “Food intake in mice (5 mg/kg SC) % saline-treated group (45 min)” value stood at 5%.

On to `CCCCCCCCCC(=O)N[C@@H](CO)C(=O)N[C@@H](CCCNC(=N)N)C(=O)N[C@@H](C)C(=O)N[C@@H](Cc1c[nH]cn1)C(=O)N[C@@H](CCC(N)=O)C(=O)N[C@@H](Cc1c[nH]cn1)C(=O)N[C@@H](CO)C(=O)N[C@@H](CCCC)C(=O)N[C@@H](CCC(=O)O)C(=O)N[C@H](C(=O)N[C@@H](CCCNC(=N)N)C(=O)N[C@H](C(=O)N1CCC[C@H]1C(=O)N[C@@H](CC(=O)O)C(=O)N[C@H](C(=O)N[C@@H](CC(N)=O)C(=O)N1CCC[C@H]1C(=O)N[C@@H](C)C(=O)N[C@@H](Cc1c[nH]c2ccccc12)C(=O)N[C@@H](Cc1ccc(O)cc1)C(=O)N[C@H](C(=O)NCC(=O)N[C@@H](CCCNC(=N)N)C(=O)NCC(=O)N[C@H](C(=O)N[C@@H](CCCNC(=N)N)C(=O)N1CCC[C@H]1C(=O)N[C@H](C(=O)NCC(=O)N[C@@H](CCCNC(=N)N)C(=O)N[C@@H](Cc1ccccc1)C(N)=O)C(C)C)[C@@H](C)CC)[C@@H](C)O)[C@@H](C)CC)[C@@H](C)O)[C@@H](C)O` [Analog 16] (Decanoyl-SRAHQHS[Nle]ETRTPDINPAWYTGRGIRPVGRF-NH2), for which the “Food intake in mice (5 mg/kg SC) % saline-treated group (45 min)” value is on record as 57%.

For `CCCCCCCCCCCCCCCC(=O)N[C@@H](CO)C(=O)N[C@@H](CCCNC(=N)N)C(=O)N[C@@H](C)C(=O)N[C@@H](Cc1c[nH]cn1)C(=O)N[C@@H](CCC(N)=O)C(=O)N[C@@H](Cc1c[nH]cn1)C(=O)N[C@@H](CO)C(=O)N[C@@H](CCCC)C(=O)N[C@@H](CCC(=O)O)C(=O)N[C@H](C(=O)N[C@@H](CCCNC(=N)N)C(=O)N[C@H](C(=O)N1CCC[C@H]1C(=O)N[C@@H](CC(=O)O)C(=O)N[C@H](C(=O)N[C@@H](CC(N)=O)C(=O)N1CCC[C@H]1C(=O)N[C@@H](C)C(=O)N[C@@H](Cc1c[nH]c2ccccc12)C(=O)N[C@@H](Cc1ccc(O)cc1)C(=O)N[C@H](C(=O)NCC(=O)N[C@@H](CCCNC(=N)N)C(=O)NCC(=O)N[C@H](C(=O)N[C@@H](CCCNC(=N)N)C(=O)N1CCC[C@H]1C(=O)N[C@H](C(=O)NCC(=O)N[C@@H](CCCNC(=N)N)C(=O)N[C@@H](Cc1ccc([N+](=O)[O-])cc1)C(N)=O)C(C)C)[C@@H](C)CC)[C@@H](C)O)[C@@H](C)CC)[C@@H](C)O)[C@@H](C)O` [Analog 29] (Palmitoyl-SRAHQHS[Nle]ETRTPDINPAWYTGRGIRPVGR[Phe(4-NO2)]-NH2), the “Food intake in mice (5 mg/kg SC) % saline-treated group (45 min)” value was 0.7%.
